Consider 39 compounds from a melting point compilation (Tetko et al.).

Residues, ends and D or L forms follow the SMILES beside them. *: point of attachment. Butoxycarbonyl = CCCCOC(=O)*; Bn = c1ccc(C*)cc1

Regarding `CCOC(CN1C(=O)C2=C(c3cc4cc(C(C)(C)C)cc(C(C)(C)C)c4o3)N(CC(OCC)OCC)C(=O)C2=C1c1cc2cc(C(C)(C)C)cc(C(C)(C)C)c2o1)OCC`, the melting point is 194 to 196 °C.
Take `O=C(NCCCCCCCCCCCCNC(=O)C(O)C(O)C(O)C(O)COC1OC(CO)C(O)C(O)C1O)C(O)C(O)C(O)C(O)COC1OC(CO)C(O)C(O)C1O` (centres undefined): the melting point is 114 to 123 °C.
For `C=C1C(n2ccc(NC(=O)CCCCCCCCCCCCCCCCC)nc2=O)OC(COC(=O)CCCCCCCCCCCCCCCCC)C1(O)C(=O)CCCCCCCCCCCCCCCCC` (centres undefined), the melting point was 92 to 96 °C.
In turn, `CC(C)(C)c1cc(CCC(=O)OC2C(C)(C)C(OC(=O)CCc3cc(C(C)(C)C)c(O)c(C(C)(C)C)c3)C(C)(C)C(OC(=O)CCc3cc(C(C)(C)C)c(O)c(C(C)(C)C)c3)C2(C)C)cc(C(C)(C)C)c1O` (centres undefined) had a melting point of 105 to 115 °C.
For the compound `COC(=O)COc1ccccc1`, the melting point lay within 85 to 89 °C.
`Cc1ccnc2nc(SCc3ccccc3)nn12`: the melting point was in the range of 102 to 104 °C.
Take `CCN1CCN(c2ccc(-c3ccnc(Nc4cc(OC)c(OC)c(OC)c4)n3)cn2)CC1`: the melting point came out at 139 °C.
In turn, `CC(C)(c1ccc(OCC(O)CN2C(=O)NC3(CC(C)(C)N(CCO)C(C)(C)C3)C2=O)cc1)c1ccc(OCC(O)CN2C(=O)NC3(CC(C)(C)N(CCO)C(C)(C)C3)C2=O)cc1` (centres undefined) returned a melting point of 233 to 236 °C.
The value for `O=c1cc(-c2ccc(OCCOCCOCCOCCOCCOCCOCCOCCOCCOc3ccc(-c4cc(=O)c5c(O)cc(O)cc5o4)cc3)cc2)oc2cc(O)cc(O)c12` was 135 to 137 °C; that for `CCCCCCCCCCCCCC(=O)Nc1ccc(Cl)c(NC2=NN(c3c(Cl)cc(Cl)cc3Cl)C(=O)C2SCCCCOc2cccc(C)c2)c1` (centres undefined) was 123 to 124 °C; that for `COc1cc(NC(=O)N2CCCC2)c(S(C)(=N)=O)cc1OC` (centres undefined) was 312 to 314 °C.
The compound `C=CCNc1nc(NC(C)(C)CC(C)(C)C)nc(N(CCCCCCN(c2nc(NCC=C)nc(NC(C)(C)CC(C)(C)C)n2)C2CC(C)(C)NC(C)(C)C2)C2CC(C)(C)NC(C)(C)C2)n1` came in with a melting point of 160 to 162 °C.
`O=S(=O)(C(/C=C/c1ccc(I)cc1)c1ccc(Cl)cc1Cl)C(/C=C/c1ccc(I)cc1)c1ccc(Cl)cc1Cl` (centres undefined) came in with a melting point of 181 to 182 °C.
`CC(=O)N1C(C)(C)CC(OC(=O)C(Cc2cc(C)c(O)c(C(C)(C)C)c2)(Cc2cc(C)c(O)c(C(C)(C)C)c2)C(=O)OC2CC(C)(C)N(C(C)=O)C(C)(C)C2)CC1(C)C` displayed a melting point of 189 °C.
The value for `CCc1nc(OC)c(NC(=O)N2CCN(c3cc(C)cc(C)c3)CC2)cc1C(=O)NC(C)C(=O)Nc1cc(CO)cc(Nc2c3ccccc3nc3c(OC)cccc23)c1` (centres undefined) was 178 to 179 °C; that for `CC(C)(O)C(=O)c1ccc(C(OC(=O)c2ccc(C(=O)OC(c3ccc(C(=O)C(C)(C)O)cc3)c3ccc(C(=O)C(C)(C)O)cc3)cc2)c2ccc(C(=O)C(C)(C)O)cc2)cc1` was 102 °C.
`COc1ccc(C(/C=C/c2cc(I)c(OC)c(OC)c2)S(=O)(=O)C(/C=C/c2cc(I)c(OC)c(OC)c2)c2ccc(OC)cc2)cc1` (centres undefined): the melting point is 160 to 161 °C.
The compound `FC(F)(F)C(F)(F)C(F)(F)C(F)(F)C(F)(F)C(F)(F)C(F)(F)C(F)(F)C(F)(F)C(F)(F)CC[Si](Br)(CCC(F)(F)C(F)(F)C(F)(F)C(F)(F)C(F)(F)C(F)(F)C(F)(F)C(F)(F)C(F)(F)C(F)(F)F)CCC(F)(F)C(F)(F)C(F)(F)C(F)(F)C(F)(F)C(F)(F)C(F)(F)C(F)(F)C(F)(F)C(F)(F)F` returned a melting point of 80 to 81 °C.
The value for `O=C(CCl)Nc1nc(-c2ccco2)c(C(=O)c2ccccn2)s1` was 184 to 185 °C; that for `[C-]#[N+]CCCS(=O)(=O)c1ccc(C)cc1` was 37 to 38 °C.
Compound `C=CCOCC(=O)Nc1c(I)c(C(=O)NC(COC(C)=O)COC(C)=O)c(I)c(C(=O)NC(COC(C)=O)COC(C)=O)c1I` had a melting point of 214 to 216 °C.
Take `CCCCCCCCCCCCCCCCCCOc1cc(OCCCCc2ccc3cc(OCc4ccccc4)c(OCc4ccccc4)cc3c2)cc(N(CC(=O)O)CC(=O)O)c1`: the melting point fell in the range of 83 to 86 °C.
For the compound `CCCCCCCCCCCCCCCCNc1ccc(C(=O)OCC(COC(=O)c2ccc(NCCCCCCCCCCCCCCCC)cc2)OC(=O)c2ccc(NCCCCCCCCCCCCCCCC)cc2)cc1`, the melting point was 117 to 118 °C.
In turn, `O=S(=NCCN1CCOCC1)(c1cccs1)c1cccs1` returned a melting point of 190 °C.
`CC(C)C(NS(=O)(=O)N(C)Cc1ccccn1)C(=O)NC(Cc1ccccc1)C(O)C(O)C(Cc1ccccc1)NC(=O)C(NS(=O)(=O)N(C)Cc1ccccn1)C(C)C` (centres undefined): the melting point lay in the range of 85 to 89 °C.
For `CC(=O)c1cc2cc(Br)ccc2oc1=O`, the melting point was 227 °C.
The value for `CCCCCc1ccc(OCCCCCCOc2ccc(-c3ccc4c5c(c(C(=O)OCC)cc4c3)C=CC(c3ccccc3)(c3ccc(N4CCCCC4)cc3)O5)cc2)cc1` (centres undefined) was 85 to 86 °C; that for `CCC1(O)CC(OC2CC(N(C)C)C(OC3CC(O)C(OC4CCC(=O)C(C)O4)C(C)O3)C(C)O2)c2c(cc3c(c2O)C(=O)c2c(O)cccc2C3=O)C1C(=O)OC` (centres undefined) was 148 °C; that for `CC(OC(C)C(I)=C(I)I)C(I)=C(I)I` (centres undefined) was 43.5 to 44.5 °C.
The compound `CCCCCCCCCCCS(=O)(=O)c1cc2c3cc(S(=O)(=O)CCCCCCCCCCC)c(S(=O)(=O)CCCCCCCCCCC)cc3c3cc(S(=O)(=O)CCCCCCCCCCC)c(S(=O)(=O)CCCCCCCCCCC)cc3c2cc1S(=O)(=O)CCCCCCCCCCC` displayed a melting point of 179 to 180 °C.
The result for `CC(C)OCCOc1ccc(CCCOc2nn(C)cc2CC(=O)O)c(Oc2ncc(C(F)(F)F)cc2Cl)c1` reads 104 °C.
Compound `CC(=O)OCC(CN(CC(COC(C)=O)OC(C)=O)C(=O)c1c(I)c(NC(=O)C2CCCO2)c(I)c(C(N)=O)c1I)OC(C)=O` (centres undefined) registered a melting point of 101 to 104 °C.
For the compound `CCCCCCC1(CCCCCC)c2cc(Br)ccc2-c2ccc(-c3ccc(-c4ccc5c(c4)C(CCCCCC)(CCCCCC)c4cc(Br)ccc4-5)c4snnc34)cc21`, the melting point was 188 to 190 °C.
`CCCCCCCCCCCCSc1cc(SCCCCCCCCCCCC)c2ccc3c(SCCCCCCCCCCCC)cc(SCCCCCCCCCCCC)c4ccc1c2c43` registered a melting point of 110 °C.
In the case of `CCCCOC(=O)NC(COCc1ccccc1)C(=O)NC(Cc1c[nH]c2ccccc12)C(=O)NC(CO)C(=O)NC(Cc1ccc(O)cc1)C(=O)NC(Cc1ccccc1)C(=O)NC(CC(C)C)C(=O)OC` (centres undefined) (Butoxycarbonyl-S(Bn)WSYFL-OMe; configuration not given here), the melting point was in the range of 200 to 202 °C.
The result for `CCC(Cc1c(I)cc(I)c(NC(=O)CCCCCNC(=O)C(COCc2ccccc2)N2CCNCCNCCNCC2)c1I)C(=O)O` (centres undefined) reads 144 °C; that for `CC(C)(C)c1cc(CCC(=O)NN=C(O)c2cc(-c3ccc(C(=O)O)c(C(O)=NNC(=O)CCc4cc(C(C)(C)C)c(O)c(C(C)(C)C)c4)c3)ccc2C(=O)O)cc(C(C)(C)C)c1O`, 291 to 293 °C; that for `Cc1nc(-c2cncc(F)c2)sc1NC(=O)C(C)CS(C)(=O)=NC#N` (centres undefined), 75 to 81 °C.
`CSC1=NCc2cc(Cl)ccc2-n2c(C)nnc21` gave a melting point of 248 to 250 °C.
